According to patent US20160304957A1, “TREATMENT AND MODULATION OF GENE EXPRESSION AND SKIN AGING” (DSM NUTRITIONAL PRODUCTS LTD., priority 2006, published 2016):

Columns and labels:
Assay type in all cases: cell-based, human
[1] = system: MMP-1; assay: ELISA of MMP-1 release into cell culture supernatant of HaCaT cells; settings: 1, 10, or 100 nM RA; unpublished observations
Procedure: HaCaT cells were supplemented with 0.5, 1.5, or 3 μM β-carotene for 2 days prior to UVA (270 kJ/m^2) irradiation. MMP-1 and TIMP-1 secretion 24 hours after irradiation was analyzed by ELISA. Each condition was represented by three replicates in the experiment. Values are means±standard error.
Release of MMP-1, and TIMP-1 into cell culture supernatant was determined by ELISA at 24 hours after irradiation. MMP-1 and TIMP-1 release was measured using MMP-1 and TIMP ELISA from CALBIOCHEM (San Diego, Calif., USA). The ELISAs were performed according to the manufacturer's instructions.

[2] = system: MMP-3; assay: QRT-PCR gene expression in HaCaT cells with or without UVA
Procedure: (§1) HaCaT cells were obtained from Prof. Fusenig, German Cancer Research Centre, Heidelberg. […] The accuracy of cell counting was approximately 99%.
(§2) On day 3 of the experiment, cells were washed six times with Ca/Mg-free PBS containing 2% BSA, and then irradiated with light with a Hönle sun lamp Sol 500 (Dr. Hönle, Plannegg, Germany) at a dose of 270 kJ/m^2 in Ca/Mg-free PBS (2 hour exposure time at […]). The experimental schedule was chosen because the cells had optimal UVA sensitivity after 48 hours in culture. […] Confluent cultures were much less sensitive to irradiation.
(§3) After irradiation, the cells were supplied with fresh β-carotene-containing serum-free medium and kept in the incubator at 37° C., 5% CO2 until harvest of the samples. In experiments in which the half-life of ^1O2 was prolonged by D2O to enhance its effect, PBS was prepared in D2O, instead of in H2O, as it was done for the standard conditions described above. Cells were washed twice in D2O-PBS prior to irradiation in D2O-PBS. After irradiation, cells were maintained with fresh β-carotene-containing serum-free medium. Sham controls were treated in an identical manner, by placing them under the solar simulator but shielded from light.
(§4) Total RNA was isolated by using Trizol™ (Invitrogen, Basel, Switzerland) according to the instructions of the manufacturer. Random-primed cDNA was synthesized using the Superscript pre-amplification system for first strand cDNA synthesis (Invitrogen).
(§5) cDNA corresponding to 10 ng total RNA was used as template to quantify the relative RNA expression of the genes of interest by TaqMan® real time PCR.
(§6) The PCR analyses were carried out in triplicate and in a multiplex setup, using 18S rRNA as a calibrator gene. The rRNA primers were used at a final concentration of 50 nM, the probe at 100 nM. For quantification of the genes of interest, the primer concentrations were optimized for sensitivity of template detection. […] PCR reactions were carried out for 40 cycles of 95° C. for 15 seconds and 60° C. for 1 minute in an ABI7700 (Applied Biosystems, Rotkreuz, Switzerland). Regulation of gene expression was calculated as described in user bulletin #2 provided by the manufacturer. A threshold cycle (“CT”) is the first PCR cycle in which an amplification signal is detected. Expression levels are given as δCT values. The δCT value describes the level of gene expression as the average PCR cycle, in which the gene of interest was detected first (CT value), subtracted by the CT value of the calibrator gene 18S rRNA (CTgene of interest−CTcalibrating gene), 18S rRNA served as a measure for the amount of template in the reaction. Routinely, 18S rRNA was detected between PCR cycle 12 and 13 (SE=standard error) A low δCT corresponds to a high mRNA level.

[3] = system: MMP-1; assay: as above
Procedure: as §1, §2, §3, §4, §5, §6

[4] = system: MMP-10; assay: as above
Procedure: as §1, §2, §3, §4, §5, §6

[5] = system: TIMP-1; assay: as above; settings: vitamin E 50 μM
Procedure: as §1
Vitamin E (RRR-α-tocopherol; DSM Nutritional Products, Kaiseraugst, Switzerland) stock solutions and vitamin E-containing media were prepared as described for β-carotene-containing solutions, except that vitamin E was dissolved in ethanol. In experiments addressing the vitamin E effect, vitamin E was used in a final concentration of 50 μM. Again, the solvent concentration was kept constant at 0.03% ethanol for all conditions.
On day 3 of the experiment, cells were washed six times with Ca/Mg-free PBS containing 2% BSA, and then irradiated with light with a Hönle sun lamp Sol 500 (Dr. Hönle, Plannegg, Germany) at a dose of 270 kJ/m^2 in Ca/Mg-free PBS (2 hour exposure time at […]). The experimental schedule was chosen because the cells had optimal UVA sensitivity after 48 hours in culture. […] Confluent cultures were much less sensitive to irradiation. […]
as §5
The PCR analyses were carried out in triplicate and in a multiplex setup, using 18S rRNA as a calibrator gene. […] For quantification of the genes of interest, the primer concentrations were optimized for sensitivity of template detection. […] Regulation of gene expression was calculated as described in user bulletin #2 provided by the manufacturer. A threshold cycle (“CT”) is the first PCR cycle in which an amplification signal is detected. […] The δCT value describes the level of gene expression as the average PCR cycle, in which the gene of interest was detected first (CT value), subtracted by the CT value of the calibrator gene 18S rRNA (CTgene of interest−CTcalibrating gene), 18S rRNA served as a measure for the amount of template in the reaction. Routinely, 18S rRNA was detected between PCR cycle 12 and 13 (SE=standard error) A low δCT corresponds to a high mRNA level.

[6] = vitamin E 50 μM with β-carotene 1.5 μM

SMILES	UVA-induced MMP-1 secretion [1]	cooperation with β-carotene in reducing UVA-induction of MMP-3 [2, 6]	MMP-3 expression ([2]; vitamin E alone, 50 μM)	cooperation with β-carotene in reducing UVA-induction of MMP-1 [3, 6]	MMP-1 expression ([3]; vitamin E alone, 50 μM)	cooperation with β-carotene in reducing UVA-induction of MMP-10 [4, 6]	MMP-10 expression ([4]; vitamin E alone, 50 μM)	UVA-suppressed TIMP-1 expression [5]
CC1=C(/C=C/C(C)=C/C=C/C(C)=C/C(=O)O)C(C)(C)CCC1 [RA, retinoic acid]	no effect							
Cc1c(C)c2c(c(C)c1O)CC[C@@](C)(CCC[C@H](C)CCC[C@H](C)CCCC(C)C)O2 [vitamin E, RRR-α-tocopherol]		did not cooperate	no effect	did not cooperate	no effect	did not cooperate	no effect	restored
